Source: ChEMBL document CHEMBL1177794, “Broad spectrum alkynyl inhibitors of T315I Bcr-Abl” (Bioorg Med Chem Lett, 2010)

How the values were obtained:
[1] = target: Calcium/calmodulin-dependent protein kinase kinase 1 (Homo sapiens) (UniProt Q8N5S9); assay: Inhibition of CAMKK1 at 10 uM; details: values are per cent of control
[2] = target: Myosin-IIIb (Homo sapiens) (UniProt Q8WXR4); assay: Inhibition of MYO3B at 10 uM
[3] = target: RAC-gamma serine/threonine-protein kinase (Homo sapiens) (UniProt Q9Y243); assay: Inhibition of AKT3 at 10 uM; details: values are per cent of control
[4] = target: Serine/threonine-protein kinase PLK3 (Homo sapiens) (UniProt Q9H4B4); assay: Inhibition of PLK3 at 10 uM
[5] = target: Protein kinase C delta type (Homo sapiens) (UniProt Q05655); assay: Inhibition of PRKCD at 10 uM
[6] = target: Mitogen-activated protein kinase kinase kinase 3 (Homo sapiens) (UniProt Q99759); assay: Inhibition of MAP3K3 at 10 uM; details: values are per cent of control
[7] = system: Tyrosine-protein kinase ABL1 (Homo sapiens), P00519 [M351T]; assay: Inhibition of phosphorylated ABL1 M351T mutant at 10 uM; details: values are per cent of control
[8] = target: Mitogen-activated protein kinase kinase kinase 15 (Homo sapiens) (UniProt Q6ZN16); assay: Inhibition of MAP3K15 at 10 uM; details: values are per cent of control
[9] = system: Phosphatidylinositol 4,5-bisphosphate 3-kinase catalytic subunit alpha isoform (Homo sapiens), P42336 [I800L]; assay: Inhibition of PIK3CA I800L mutant at 10 uM
Sequence of Phosphatidylinositol 4,5-bisphosphate 3-kinase catalytic subunit alpha isoform (Homo sapiens), P42336 [I800L] (P42336 whole entry I800L, canonical isoform): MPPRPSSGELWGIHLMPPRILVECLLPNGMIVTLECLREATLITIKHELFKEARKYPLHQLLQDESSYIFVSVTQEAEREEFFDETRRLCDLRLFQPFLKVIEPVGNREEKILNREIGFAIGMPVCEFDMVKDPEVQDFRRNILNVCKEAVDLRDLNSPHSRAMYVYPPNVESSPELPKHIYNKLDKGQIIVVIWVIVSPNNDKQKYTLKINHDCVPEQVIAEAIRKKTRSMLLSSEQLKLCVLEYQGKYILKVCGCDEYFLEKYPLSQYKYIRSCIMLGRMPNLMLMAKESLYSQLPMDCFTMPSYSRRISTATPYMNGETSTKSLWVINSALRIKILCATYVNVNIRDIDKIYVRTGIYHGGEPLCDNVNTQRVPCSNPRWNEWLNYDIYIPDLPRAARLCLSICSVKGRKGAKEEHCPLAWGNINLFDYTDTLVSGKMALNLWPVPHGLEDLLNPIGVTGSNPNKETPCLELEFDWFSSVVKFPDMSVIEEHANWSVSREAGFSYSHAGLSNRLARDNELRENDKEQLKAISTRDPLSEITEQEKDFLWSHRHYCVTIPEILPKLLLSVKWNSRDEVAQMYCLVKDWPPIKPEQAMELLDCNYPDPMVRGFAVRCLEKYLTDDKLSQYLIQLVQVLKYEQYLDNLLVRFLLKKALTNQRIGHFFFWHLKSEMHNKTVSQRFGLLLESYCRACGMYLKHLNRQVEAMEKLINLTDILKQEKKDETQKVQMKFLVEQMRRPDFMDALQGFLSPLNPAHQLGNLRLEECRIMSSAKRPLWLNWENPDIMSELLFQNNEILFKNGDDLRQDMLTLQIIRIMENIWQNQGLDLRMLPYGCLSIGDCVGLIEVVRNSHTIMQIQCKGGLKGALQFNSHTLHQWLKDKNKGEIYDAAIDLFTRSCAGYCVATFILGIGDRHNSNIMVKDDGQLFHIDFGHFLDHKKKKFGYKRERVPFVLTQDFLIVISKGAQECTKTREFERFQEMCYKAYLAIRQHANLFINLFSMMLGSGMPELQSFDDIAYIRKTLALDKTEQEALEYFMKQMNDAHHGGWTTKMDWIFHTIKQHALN

[10] = target: Calcium/calmodulin-dependent protein kinase type II subunit delta (Homo sapiens) (UniProt Q13557); assay: Inhibition of CAMK2D at 10 uM; details: values are per cent of control
[11] = target: Serine/threonine-protein kinase PAK 5 (Homo sapiens) (UniProt Q9P286); assay: Inhibition of PAK7 at 10 uM; details: values are per cent of control
[12] = system: Tyrosine-protein kinase ABL1 (Homo sapiens), P00519 [Y253F]; assay: Inhibition of phosphorylated ABL1 Y253F mutant at 10 uM; details: values are per cent of control
[13] = target: Dual specificity mitogen-activated protein kinase kinase 3 (Homo sapiens) (UniProt P46734); assay: Inhibition of MEK3 at 10 uM; details: values are per cent of control
[14] = target: Ribosomal protein S6 kinase alpha-2 (Homo sapiens) (UniProt Q15349); assay: Inhibition of RSK3 C-terminal domain2 at 10 uM
[15] = target: Mitogen-activated protein kinase kinase kinase 13 (Homo sapiens) (UniProt O43283); assay: Inhibition of LZK at 10 uM; values are per cent of control
[16] = target: Tyrosine-protein kinase CSK (Homo sapiens) (UniProt P41240); assay: Inhibition of CSK at 10 uM; values are per cent of control
[17] = target: Serine/threonine-protein kinase MARK1 (Homo sapiens) (UniProt Q9P0L2); assay: Inhibition of MARK1 at 10 uM; details: values are per cent of control
Sequence of Serine/threonine-protein kinase MARK1 (Homo sapiens) (Q9P0L2 whole entry, looked up): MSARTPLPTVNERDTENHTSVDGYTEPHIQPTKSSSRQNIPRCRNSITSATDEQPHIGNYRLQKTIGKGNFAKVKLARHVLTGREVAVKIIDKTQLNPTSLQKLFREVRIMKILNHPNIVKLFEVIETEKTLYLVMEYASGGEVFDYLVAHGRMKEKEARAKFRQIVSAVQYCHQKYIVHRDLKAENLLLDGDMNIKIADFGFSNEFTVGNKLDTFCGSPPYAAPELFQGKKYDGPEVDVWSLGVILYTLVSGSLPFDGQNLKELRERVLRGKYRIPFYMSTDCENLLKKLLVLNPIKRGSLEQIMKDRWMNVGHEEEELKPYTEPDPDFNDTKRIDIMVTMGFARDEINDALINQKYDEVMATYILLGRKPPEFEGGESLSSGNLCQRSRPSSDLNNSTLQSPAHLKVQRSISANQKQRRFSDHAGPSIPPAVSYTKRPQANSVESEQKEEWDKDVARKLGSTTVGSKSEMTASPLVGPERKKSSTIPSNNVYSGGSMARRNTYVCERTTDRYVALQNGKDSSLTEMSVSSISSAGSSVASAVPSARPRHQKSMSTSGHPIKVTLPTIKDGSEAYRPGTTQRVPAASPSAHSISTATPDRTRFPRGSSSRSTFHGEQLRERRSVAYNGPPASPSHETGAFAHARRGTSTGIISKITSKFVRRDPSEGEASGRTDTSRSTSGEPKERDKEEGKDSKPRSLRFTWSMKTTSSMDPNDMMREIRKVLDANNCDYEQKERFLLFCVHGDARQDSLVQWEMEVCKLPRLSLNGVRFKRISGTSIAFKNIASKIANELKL

[18] = target: Calcium/calmodulin-dependent protein kinase type 1 (Homo sapiens) (UniProt Q14012); assay: Inhibition of CAMK1 at 10 uM; details: values are per cent of control
[19] = system: Mast/stem cell growth factor receptor Kit (Homo sapiens), P10721 [V559D,T670I]; assay: Inhibition of KIT V559D, T670I mutant at 10 uM; details: values are per cent of control
[20] = target: Interleukin-1 receptor-associated kinase 3 (Homo sapiens) (UniProt Q9Y616); assay: Inhibition of IRAK3 at 10 uM; details: values are per cent of control
[21] = system: Tyrosine-protein kinase ABL1 (Homo sapiens), P00519 [F317L]; assay: Inhibition of non phosphorylated ABL1 F317L mutant at 10 uM; details: values are per cent of control
[22] = target: Platelet-derived growth factor receptor alpha (Homo sapiens) (UniProt P16234); assay: Inhibition of PDGFRA at 10 uM; details: values are per cent of control
[23] = target: MAP/microtubule affinity-regulating kinase 3 (Homo sapiens) (UniProt P27448); assay: Inhibition of MARK3 at 10 uM; details: values are per cent of control
[24] = target: Tyrosine-protein kinase JAK2 (Homo sapiens) (UniProt O60674); assay: Inhibition of JAK2 JH1 catalytic domain at 10 uM; values are per cent of control
[25] = target: Activin receptor type-1B (Homo sapiens) (UniProt P36896); assay: Inhibition of ACVR1B at 10 uM; details: values are per cent of control
[26] = target: Atypical kinase COQ8A, mitochondrial (Homo sapiens) (UniProt Q8NI60); assay: Inhibition of ADCK3 at 10 uM; details: values are per cent of control
[27] = target: Serine/threonine-protein kinase MAK (Homo sapiens) (UniProt P20794); assay: Inhibition of MAK at 10 uM; details: values are per cent of control
[28] = target: Protein-tyrosine kinase 2-beta (Homo sapiens) (UniProt Q14289); assay: Inhibition of PYK2 at 10 uM; details: values are per cent of control
[29] = target: Tyrosine-protein kinase Tec (Homo sapiens) (UniProt P42680); assay: Inhibition of TEC at 10 uM; values are per cent of control
[30] = target: Serine/threonine-protein kinase RIO1 (Homo sapiens) (UniProt Q9BRS2); assay: Inhibition of RIOK1 at 10 uM
[31] = target: Serine/threonine-protein kinase PRP4 homolog (Homo sapiens) (UniProt Q13523); assay: Inhibition of PRP4 at 10 uM
Sequence of Serine/threonine-protein kinase PRP4 homolog (Homo sapiens) (Q13523 whole entry): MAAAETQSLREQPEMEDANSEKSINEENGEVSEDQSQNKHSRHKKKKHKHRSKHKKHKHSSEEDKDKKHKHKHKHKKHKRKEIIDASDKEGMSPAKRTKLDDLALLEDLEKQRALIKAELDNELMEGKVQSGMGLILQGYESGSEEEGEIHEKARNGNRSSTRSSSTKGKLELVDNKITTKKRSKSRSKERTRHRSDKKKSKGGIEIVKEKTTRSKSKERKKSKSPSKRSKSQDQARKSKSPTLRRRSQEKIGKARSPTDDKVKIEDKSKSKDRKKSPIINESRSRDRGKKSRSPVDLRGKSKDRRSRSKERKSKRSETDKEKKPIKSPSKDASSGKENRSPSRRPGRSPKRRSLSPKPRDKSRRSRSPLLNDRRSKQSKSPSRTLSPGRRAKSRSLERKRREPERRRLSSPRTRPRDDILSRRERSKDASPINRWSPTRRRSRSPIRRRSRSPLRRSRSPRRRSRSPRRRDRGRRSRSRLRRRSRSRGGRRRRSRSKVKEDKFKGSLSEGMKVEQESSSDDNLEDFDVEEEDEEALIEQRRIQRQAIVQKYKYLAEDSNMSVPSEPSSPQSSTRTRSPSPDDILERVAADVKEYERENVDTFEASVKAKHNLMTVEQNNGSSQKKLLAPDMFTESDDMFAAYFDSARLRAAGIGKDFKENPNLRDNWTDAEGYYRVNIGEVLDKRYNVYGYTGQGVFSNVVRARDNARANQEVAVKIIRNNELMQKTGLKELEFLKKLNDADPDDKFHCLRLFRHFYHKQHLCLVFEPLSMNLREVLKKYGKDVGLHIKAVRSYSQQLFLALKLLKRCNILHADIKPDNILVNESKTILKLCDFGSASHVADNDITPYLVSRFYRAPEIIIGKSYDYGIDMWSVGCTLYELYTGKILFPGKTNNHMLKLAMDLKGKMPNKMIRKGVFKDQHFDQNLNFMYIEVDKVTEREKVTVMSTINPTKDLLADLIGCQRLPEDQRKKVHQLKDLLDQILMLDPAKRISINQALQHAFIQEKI

[32] = target: Rhodopsin kinase GRK7 (Homo sapiens) (UniProt Q8WTQ7); assay: Inhibition of GRK7 at 10 uM; details: values are per cent of control
[33] = target: Phosphatidylinositol 3-kinase C2 domain-containing subunit gamma (Homo sapiens) (UniProt O75747); assay: Inhibition of PIK3C2G at 10 uM
[34] = target: Serine/threonine-protein kinase PAK 2 (Homo sapiens) (UniProt Q13177); assay: Inhibition of PAK2 at 10 uM
[35] = target: Receptor tyrosine-protein kinase erbB-3 (Homo sapiens) (UniProt P21860); assay: Inhibition of ERBB3 at 10 uM; values are per cent of control
[36] = system: Receptor-type tyrosine-protein kinase FLT3 (Homo sapiens), P36888 [N841I]; assay: Inhibition of FLT3 N841I mutant at 10 uM; details: values are per cent of control
[37] = target: Protein kinase C epsilon type (Homo sapiens) (UniProt Q02156); assay: Inhibition of PRKCE at 10 uM
[38] = target: STE20/SPS1-related proline-alanine-rich protein kinase (Homo sapiens) (UniProt Q9UEW8); assay: Inhibition of STK39 at 10 uM
[39] = target: Serine/threonine-protein kinase ULK3 (Homo sapiens) (UniProt Q6PHR2); assay: Inhibition of ULK3 at 10 uM; details: values are per cent of control
[40] = target: Citron Rho-interacting kinase (Homo sapiens) (UniProt O14578); assay: Inhibition of CIT at 10 uM; values are per cent of control
Sequence of Citron Rho-interacting kinase (Homo sapiens) (O14578 whole entry): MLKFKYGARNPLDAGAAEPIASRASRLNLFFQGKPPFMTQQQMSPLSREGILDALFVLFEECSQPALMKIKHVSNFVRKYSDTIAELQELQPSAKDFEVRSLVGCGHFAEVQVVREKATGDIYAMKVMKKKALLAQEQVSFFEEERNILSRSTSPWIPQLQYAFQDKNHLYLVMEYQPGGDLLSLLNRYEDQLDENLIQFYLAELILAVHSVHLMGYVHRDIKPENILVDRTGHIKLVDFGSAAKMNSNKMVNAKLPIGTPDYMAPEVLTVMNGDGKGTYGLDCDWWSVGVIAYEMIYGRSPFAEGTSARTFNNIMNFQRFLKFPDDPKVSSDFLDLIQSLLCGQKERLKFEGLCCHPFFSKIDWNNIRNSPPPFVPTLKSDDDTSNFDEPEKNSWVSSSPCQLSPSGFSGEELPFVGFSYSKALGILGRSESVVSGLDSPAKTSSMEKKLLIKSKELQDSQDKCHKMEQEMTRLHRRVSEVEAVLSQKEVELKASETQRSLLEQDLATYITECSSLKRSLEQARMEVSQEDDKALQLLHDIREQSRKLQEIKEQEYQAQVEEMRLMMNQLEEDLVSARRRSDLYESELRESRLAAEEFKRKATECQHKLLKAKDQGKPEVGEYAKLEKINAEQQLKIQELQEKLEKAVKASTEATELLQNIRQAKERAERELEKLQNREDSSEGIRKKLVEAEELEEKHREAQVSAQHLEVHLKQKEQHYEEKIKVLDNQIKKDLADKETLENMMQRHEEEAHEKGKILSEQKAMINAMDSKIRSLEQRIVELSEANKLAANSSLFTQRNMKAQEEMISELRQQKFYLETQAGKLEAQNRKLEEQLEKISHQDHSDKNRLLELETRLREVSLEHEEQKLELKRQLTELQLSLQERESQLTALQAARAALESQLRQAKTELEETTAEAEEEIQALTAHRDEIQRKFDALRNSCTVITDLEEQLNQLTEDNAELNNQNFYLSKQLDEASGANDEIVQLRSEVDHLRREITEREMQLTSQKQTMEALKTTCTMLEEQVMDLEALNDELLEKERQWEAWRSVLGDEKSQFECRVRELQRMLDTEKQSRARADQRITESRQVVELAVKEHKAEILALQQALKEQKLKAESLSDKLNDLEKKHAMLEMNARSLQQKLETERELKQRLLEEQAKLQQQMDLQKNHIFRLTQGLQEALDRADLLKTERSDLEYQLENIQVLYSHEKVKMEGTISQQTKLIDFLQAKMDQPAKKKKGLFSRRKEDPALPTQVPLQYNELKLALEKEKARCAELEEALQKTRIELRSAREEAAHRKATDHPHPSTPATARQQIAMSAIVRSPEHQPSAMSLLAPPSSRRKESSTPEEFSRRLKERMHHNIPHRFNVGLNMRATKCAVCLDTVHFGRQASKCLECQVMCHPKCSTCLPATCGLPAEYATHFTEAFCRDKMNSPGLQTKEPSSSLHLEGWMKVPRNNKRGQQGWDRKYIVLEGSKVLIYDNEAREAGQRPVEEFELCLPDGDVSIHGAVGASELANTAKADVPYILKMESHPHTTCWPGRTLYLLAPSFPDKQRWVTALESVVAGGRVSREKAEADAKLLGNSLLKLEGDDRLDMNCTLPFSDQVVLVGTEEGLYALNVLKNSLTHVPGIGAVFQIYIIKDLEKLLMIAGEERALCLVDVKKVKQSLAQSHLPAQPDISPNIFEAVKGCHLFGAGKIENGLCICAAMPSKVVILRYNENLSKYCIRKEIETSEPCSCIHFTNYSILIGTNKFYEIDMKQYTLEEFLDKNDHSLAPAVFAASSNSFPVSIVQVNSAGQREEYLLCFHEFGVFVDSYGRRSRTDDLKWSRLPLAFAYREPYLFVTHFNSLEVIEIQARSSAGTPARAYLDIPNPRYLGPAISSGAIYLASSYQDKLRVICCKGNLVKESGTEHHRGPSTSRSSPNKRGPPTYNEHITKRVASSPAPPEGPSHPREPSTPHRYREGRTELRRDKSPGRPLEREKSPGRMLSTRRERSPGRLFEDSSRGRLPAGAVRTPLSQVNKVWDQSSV

[41] = target: Cyclin-dependent kinase 19 (Homo sapiens) (UniProt Q9BWU1); assay: Inhibition of CDK11 at 10 uM; values are per cent of control
[42] = target: Casein kinase I isoform delta (Homo sapiens) (UniProt P48730); assay: Inhibition of CSNK1D at 10 uM; values are per cent of control

CCN1CCN(Cc2ccc(NC(=O)c3ccc(C)c(C#Cc4cccnc4)c3)cc2C(F)(F)F)CC1
residual binding, % of control [1]: 53%
inhibition [2]: 0%
residual binding, % of control [3]: 48%
inhibition [4]: 90%
inhibition [5]: 39%
residual binding, % of control [6]: 1.4%
residual binding, % of control [7]: 2.6%
residual binding, % of control [8]: 78%
inhibition [9]: 72%
residual binding, % of control [10]: 100%
residual binding, % of control [11]: 83%
residual binding, % of control [12]: 0.15%
residual binding, % of control [13]: 86%
inhibition [14]: 30%
level, % of control [15]: 7.4%
level, % of control [16]: 0.15%
residual binding, % of control [17]: 83%
residual binding, % of control [18]: 40%
residual binding, % of control [19]: 0%
residual binding, % of control [20]: 100%
residual binding, % of control [21]: 0%
residual binding, % of control [22]: 0%
residual binding, % of control [23]: 69%
level, % of control [24]: 3%
residual binding, % of control [25]: 85%
residual binding, % of control [26]: 100%
residual binding, % of control [27]: 9%
residual binding, % of control [28]: 0.4%
% of control [29]: 3.7%
inhibition [30]: 90%
inhibition [31]: 54%
residual binding, % of control [32]: 100%
inhibition [33]: 100%
inhibition [34]: 84%
level, % of control [35]: 100%
residual binding, % of control [36]: 0%
inhibition [37]: 54%
inhibition [38]: 89%
residual binding, % of control [39]: 0.25%
level, % of control [40]: 0%
level, % of control [41]: 5%
level, % of control [42]: 29%

CCN1CCN(Cc2ccc(NC(=O)c3ccc(C)c(C#Cc4cnc5[nH]ccc5c4)c3)cc2C(F)(F)F)CC1
residual binding, % of control [1]: 69%
inhibition [2]: 0%
residual binding, % of control [3]: 82%
inhibition [4]: 92%
inhibition [5]: 24%
residual binding, % of control [6]: 1.4%
residual binding, % of control [7]: 1.1%
residual binding, % of control [8]: 72%
inhibition [9]: 100%
residual binding, % of control [10]: 100%
residual binding, % of control [11]: 64%
residual binding, % of control [12]: 0.2%
residual binding, % of control [13]: 67%
inhibition [14]: 87%
level, % of control [15]: 7.8%
level, % of control [16]: 0.1%
residual binding, % of control [17]: 100%
residual binding, % of control [18]: 20%
residual binding, % of control [19]: 0%
residual binding, % of control [20]: 100%
residual binding, % of control [21]: 0%
residual binding, % of control [22]: 0%
residual binding, % of control [23]: 42%
level, % of control [24]: 3%
residual binding, % of control [25]: 63%
residual binding, % of control [26]: 100%
residual binding, % of control [27]: 61%
residual binding, % of control [28]: 0.15%
% of control [29]: 0.1%
inhibition [30]: 53%
inhibition [31]: 84%
residual binding, % of control [32]: 100%
inhibition [33]: 100%
inhibition [34]: 76%
level, % of control [35]: 89%
residual binding, % of control [36]: 0%
inhibition [37]: 78%
inhibition [38]: 100%
residual binding, % of control [39]: 0.25%
level, % of control [40]: 0%
level, % of control [41]: 4.2%
level, % of control [42]: 22%
